Values of other authors as cited in patent US12692503B2, “Generation of acyl amino acids” (Modular Genetics, Inc., priority 2007, dated 2026).
*1 amine or outer side, *2 acyl side, *3 side chain or, on linkers, in order; H or OH if unused. Where a SMILES comes first, the peptide text is derived from it. Bridges are numbered along the chain shown (N, C = ends). [ ]: non-standard residue; d: D form. X1 = CC(C)CCCCCCCCC[C@H](CC(=O)[*:1])O[*:2]

Conditions: organic solvents and water

SMILES: CC(C)CCCCCCCCC[C@@H]1CC(=O)N[C@@H](CCC(=O)O)C(=O)N[C@@H](CC(C)C)C(=O)N[C@H](CC(C)C)C(=O)N[C@@H](C(C)C)C(=O)N[C@@H](CC(=O)O)C(=O)N[C@H](CC(C)C)C(=O)N[C@@H](CC(C)C)C(=O)O1 [surfactin] (EL[dL]VD[dL]L; linker N-C via X1)
- solubility: soluble in both organic solvents and water
